Laboratory results from patent US20100233229A1, “IN-VIVO INDWELLING DEVICE” (Terumo Kabushiki Kaisha, priority 2007, published 2010).

Assay: ultra-micro hardness under load (HTL) of coating layer, JIS Z2255, dynamic ultra micro hardness tester
Type: physicochemical
Settings: coating layer on SUS disc; 50 mg sirolimus, 50 mg PLGA, 10 mg (20% based on PLGA) of the triglyceride; about 30 μm
Protocol: When the medium-chain fatty acid triglyceride is added to the coating layer (for example, the layer formed on at least a part of a surface of a stent main body and formed from the composition containing the biologically active agent, the biodegradable polymer, and the medium-chain fatty acid triglyceride) formed on a surface of the in-vivo indwelling device, for example, on a surface of a stent, flexibility can be imparted to the coating layer. In addition, as a method for quantitatively measuring the flexibility of a very thin layer such as the above-mentioned coating layer, measurement of ultra-micro hardness under load (also called “HTL,” “dynamic hardness” and “universal hardness”) by use of an ultra-micro hardness tester can be used. In this method, as described in JIS Z2255, hardness of a solid material is measured as a resistance to a triangular pyramid diamond indenter when the indenter is pressed against the surface of a specimen, and it is possible by the method to measure hardness in a very minute region of a solid material having a thickness of not less than 10 μm. In order that such a damage as cracking of the coating layer or exfoliation of the coating layer from the stent main body is mitigated or not generated when the stent is expanded, the ultra-micro hardness under load can be 15 or below, more preferably 12 or below, and particularly preferably 10 or below. The present inventors have made earnest search for a substance which causes the ultra-micro hardness under load of the coating layer to be, for example, 15 or below and which is high in safety, among a large number of additives. As a result of the search, they found exemplary medium-chain fatty acid triglycerides.
The circular discs provided thereon with the respective coating layers were sterilized by electron beams, and ultra-micro hardness under load (HTL) of the coating layers was measured according to JIS Z2255 by use of a dynamic ultra micro hardness tester produced by Shimadzu Corporation. A lower value of HTL indicates a higher flexibility of the coating layer.
The stent was crimped onto a balloon of a delivery catheter, and sterilized by electron beams. The ultra-micro hardness under load (HTL) of the coating layer after sterilization was measured according to JIS Z2255 by use of a dynamic ultra micro hardness tester produced by Shimadzu Corporation.

SMILES	ultra-micro hardness under load (HTL)
CCCC(=O)OCC(COC(=O)CCC)OC(=O)CCC [Tributyrin]	19
CCCCCCCCCCCC(=O)OCC(COC(=O)CCCCCCCCCCC)OC(=O)CCCCCCCCCCC [Trilaurin]	15
CCCCCCCCCCCCCC(=O)OCC(COC(=O)CCCCCCCCCCCCC)OC(=O)CCCCCCCCCCCCC [Trimyristin]	20
CCCCCCCCCC(=O)OCC(COC(=O)CCCCCCCCC)OC(=O)CCCCCCCCC [Tricaprin]	9
CCCCCCCC(=O)OCC(COC(=O)CCCCCCC)OC(=O)CCCCCCC [Tricaprylin]	10
CC(=O)OCC(COC(C)=O)OC(C)=O [Triacetin]	20
CCCCCC(=O)OCC(COC(=O)CCCCC)OC(=O)CCCCC [Tricaproin]	15
